These are literature values, as cited in patent publication US8362266B2, “Method of manufacturing a ruthenium complex” (Niiki Pharma Inc., priority 2007, dated 2013).

The series deals with broad spectrum of cancer cells. To be noted: background statement citing Kapitza et al., J. Cancer Res. Clin. Oncol. 131(2):101-10 (2005).

Take `[Cl-].[Cl-].[Cl-].[Cl-].[Ru+3].c1ccc2[nH][nH+]cc2c1.c1ccc2[nH]ncc2c1.c1ccc2[nH]ncc2c1` [KP1099, indazolium trans-[tetrachlorobis(1H-indazole)ruthenate (III)]]: the inducing apoptosis result was “highly potent”.
As for `[Cl][Ru-]([Cl])([Cl])[Cl].[Na+].c1ccc2[nH]ncc2c1.c1ccc2[nH]ncc2c1` [KP1339, sodium trans-[tetrachlorobis(1H-indazole)ruthenate (III)]], the inducing apoptosis entry is “highly potent”.
